Test results taken from patent US4200638A, “Indole derivatives and therapeutically acting drugs” (Omnium Chimique Societe Anonyme, priority 1977, dated 1980).

Key:
[1] = Acute toxicity (LD50, method of Lichtfield and Wilcoxon); conditions: mouse, in vivo, mice
Method: The compounds of the invention were administered by intragastric or by intravenous route to Charles River stock mice. The lethal doses for 50% (LD50) were determined graphically according to the method of Lichtfield and Wilcoxon (J.Pharmacol.Exp. Therap. […], 96, 99).

Charles River stock mice = assay: Hypobaric anoxia test on mice (survival time); assay type: in vivo
Method: Charles River stock mice of the same sex, weighting about 20±2 g are shared into three lots of 10 animals each. The lots 1 and 2 comprise treated animals, i.e. those having received either a substance to be tested. The third lot comprises control animals.
The compounds examined are administered p.o. 30 minutes before the experiment.
The animals are placed in an atmosphere improverished in oxygen by creating a partial vacuum (190 mm Hg, corresponding to 5.25% oxygen), in about 30 seconds.
The survival time of the mice is measured with a chronometer. Said time is increased by the agents capable of enhancing oxygenation of tissues and more particularly brain oxygenation.
Under the above described conditions, the dose which provides a 50% increase of the average survival time of the animals may be expressed as the 50% effective dose (here abbreviated as ED50).

vertebral flow rate = assay: Vertebral flow rate in anesthetized dogs; assay type: in vivo; conditions: 5.5 mg/kg i.v.
Method: (§1) In addition, a substantial increase of vertebral flow rate was noticed upon dogs previously anesthetized with sodium pentobarbital (30 mg/kg i.v.). More particularly a does of 5.5 mg/kg i.v. of N-ethylchanodesethylapovincamine causes a 50 to 100% increase of vertebral flow rate. Said effect on the flow rate is selective, the increase of femoral flow rate being negligible.

femoral flow rate = assay: Femoral flow rate in anesthetized dogs; assay type: in vivo; conditions: 5.5 mg/kg i.v.; dogs anesthetized with sodium pentobarbital (30 mg/kg i.v.)
Method: as §1

CCN1CCc2c3n(c4ccccc24)C(C(=O)OC)=CCC31 (stereo not drawn) [N-ethylchanodesethylapovincamine]
LD50 ([1]; iv): 55 mg/kg | LD50 ([1]; po, p.o. (intragastric)): 1120 mg/kg | ED50 (Charles River stock mice; Mus musculus, po, p.o. 30 minutes before the experiment, 190 mm Hg, corresponding to 5.25% oxygen, read-out: ED50 (dose which provides a 50% increase of the average survival time)): 225 mg/kg | LD50/ED50 (Charles River stock mice; p.o.): 5 | effect on the flow rate (vertebral versus femoral) (vertebral flow rate): selective | increase of femoral flow rate (femoral flow rate): negligible
